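Where inhibition never reached the appropriate level, the endpoint shown equals the highest concentration tested. Otherwise, values were interpolated linearly from a five-concentration, 48-hour dose response in 96-well plates. GI50 is the concentration that inhibits growth by half. TGI is the concentration that stops growth completely.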
What was measured:
Assay in all cases: inhibition of tumour cell growth, NCI panel, 48 h
[1] = system: HOP-62 NSCLC
[2] = system: M14 melanoma
[3] = system: A498 renal
[4] = system: SW-620 colon
[5] = system: MDA-MB-231 breast
[6] = system: SK-MEL-28 melanoma
[7] = system: DU-145 prostate
[8] = system: TK-10 renal
[9] = system: NCI-H23 lung
[10] = system: SNB-75 CNS
[11] = system: SK-MEL-5 melanoma
[12] = system: IGROV1 ovarian
[13] = system: PC-3 prostate
[14] = system: SR leukemia
[15] = system: RPMI-8226 leukemia
[16] = system: ACHN renal
[17] = system: NCI-H522 lung
[18] = system: MOLT-4 leukemia
[19] = system: SN12C renal
[20] = system: 786-0 renal
[21] = system: OVCAR-8 ovarian
[22] = system: HCC-2998 colon
[23] = system: SF-539 CNS
[24] = system: COLO 205 colon
[25] = system: UO-31 renal
[26] = system: HL-60(TB) leukemia
[27] = system: A549 NSCLC
[28] = system: SK-OV-3 ovarian
[29] = system: HS 578T breast
[30] = system: SF-295 CNS
[31] = system: SNB-19 CNS
[32] = system: T-47D breast
[33] = system: CAKI-1 renal
[34] = system: CCRF-CEM leukemia
[35] = system: SF-268 CNS
[36] = system: NCI/ADR-RES ovarian
[37] = system: NCI-H460 lung
[38] = system: NCI-H226 lung
[39] = system: HCT-116 colon
[40] = system: LOX IMVI melanoma
[41] = system: SK-MEL-2 melanoma
[42] = system: HOP-92 NSCLC
[43] = system: HCT-15 colon
[44] = system: BT-549 breast
[45] = system: OVCAR-4 ovarian
[46] = system: OVCAR-5 ovarian
[47] = system: UACC-257 melanoma
[48] = system: OVCAR-3 ovarian
[49] = system: MDA-MB-435
[50] = system: UACC-62 melanoma
[51] = system: MCF7 breast
[52] = system: U251 CNS
[53] = system: RXF 393 renal
[54] = system: K-562 leukemia
[55] = system: KM12 colon
[56] = system: MALME-3M melanoma
[57] = system: HT29 colon
[58] = system: EKVX NSCLC

CCC1CCc2nc3sc(C(=O)Nc4cccc(F)c4)c(N)c3cc2C1 (stereo not drawn)
GI50 [1]: > 100 µM
TGI [1]: > 100 µM
GI50 [2]: 0.402 µM
TGI [2]: > 100 µM
GI50 [3]: 0.602 µM
TGI [3]: > 100 µM
GI50 [4]: 0.707 µM
TGI [4]: > 100 µM
GI50 [5]: > 100 µM
TGI [5]: > 100 µM
GI50 [6]: > 100 µM
TGI [6]: > 100 µM
GI50 [7]: > 100 µM
TGI [7]: > 100 µM
GI50 [8]: > 100 µM
TGI [8]: > 100 µM
GI50 [9]: > 100 µM
TGI [9]: > 100 µM
GI50 [10]: 9.19 µM
TGI [10]: > 100 µM
GI50 [11]: 0.386 µM
TGI [11]: > 100 µM
GI50 [12]: > 100 µM
TGI [12]: > 100 µM
GI50 [13]: > 100 µM
TGI [13]: > 100 µM
GI50 [14]: 0.379 µM
TGI [14]: > 100 µM
GI50 [15]: > 100 µM
TGI [15]: > 100 µM
GI50 [16]: > 100 µM
TGI [16]: > 100 µM
GI50 [17]: > 100 µM
TGI [17]: > 100 µM
GI50 [18]: 39.8 µM
TGI [18]: > 100 µM
GI50 [19]: > 100 µM
TGI [19]: > 100 µM
GI50 [20]: 0.701 µM
TGI [20]: > 100 µM
GI50 [21]: > 100 µM
TGI [21]: > 100 µM
GI50 [22]: > 100 µM
TGI [22]: > 100 µM
GI50 [23]: > 100 µM
TGI [23]: > 100 µM
GI50 [24]: 51.8 µM
TGI [24]: > 100 µM
GI50 [25]: > 100 µM
TGI [25]: > 100 µM
GI50 [26]: 0.343 µM
TGI [26]: > 100 µM
GI50 [27]: > 100 µM
TGI [27]: > 100 µM
GI50 [28]: > 100 µM
TGI [28]: > 100 µM
GI50 [29]: > 100 µM
TGI [29]: > 100 µM
GI50 [30]: 0.901 µM
TGI [30]: > 100 µM
GI50 [31]: > 100 µM
TGI [31]: > 100 µM
GI50 [32]: > 100 µM
TGI [32]: > 100 µM
GI50 [33]: 0.867 µM
TGI [33]: > 100 µM
GI50 [34]: 1.79 µM
TGI [34]: > 100 µM
GI50 [35]: > 100 µM
TGI [35]: > 100 µM
GI50 [36]: > 100 µM
TGI [36]: > 100 µM
GI50 [37]: > 100 µM
TGI [37]: > 100 µM
GI50 [38]: > 100 µM
TGI [38]: > 100 µM
GI50 [39]: 2.25 µM
TGI [39]: > 100 µM
GI50 [40]: > 100 µM
TGI [40]: > 100 µM
GI50 [41]: > 100 µM
TGI [41]: > 100 µM
GI50 [42]: > 100 µM
TGI [42]: > 100 µM
GI50 [43]: 0.428 µM
TGI [43]: > 100 µM
GI50 [44]: > 100 µM
TGI [44]: > 100 µM
GI50 [45]: > 100 µM
TGI [45]: > 100 µM
GI50 [46]: > 100 µM
TGI [46]: > 100 µM
GI50 [47]: > 100 µM
TGI [47]: > 100 µM
GI50 [48]: 0.757 µM
TGI [48]: > 100 µM
GI50 [49]: 0.11 µM
TGI [49]: 0.616 µM
GI50 [50]: 0.376 µM
TGI [50]: > 100 µM
GI50 [51]: 0.313 µM
TGI [51]: > 100 µM
GI50 [52]: > 100 µM
TGI [52]: > 100 µM

Cc1c(COc2cc(OCc3cccc(C#N)c3)c(CN3C[C@H](O)C[C@@H]3C(=O)O)cc2Cl)cccc1-c1ccc2c(c1)OCCO2
GI50 [1]: 19.8 µM
TGI [1]: 38.6 µM
GI50 [2]: 13.2 µM
TGI [2]: 27.1 µM
GI50 [3]: 18.7 µM
TGI [3]: 33.3 µM
GI50 [4]: 16.7 µM
TGI [4]: 31.5 µM
GI50 [53]: 16 µM
TGI [53]: 29.9 µM
GI50 [5]: 13.8 µM
TGI [5]: 29.6 µM
GI50 [6]: 13.3 µM
TGI [6]: 26.1 µM
GI50 [7]: 24.4 µM
TGI [7]: 62.1 µM
GI50 [8]: 20.2 µM
TGI [8]: 41.5 µM
GI50 [9]: 16.9 µM
TGI [9]: 31 µM
GI50 [10]: 13.6 µM
TGI [10]: 27 µM
GI50 [11]: 2.14 µM
TGI [11]: 5.13 µM
GI50 [12]: 16.3 µM
TGI [12]: 32.5 µM
GI50 [13]: 2.54 µM
TGI [13]: 7.7 µM
GI50 [14]: 2.65 µM
TGI [14]: 8.95 µM
GI50 [16]: 17.2 µM
TGI [16]: 31 µM
GI50 [17]: 19.8 µM
TGI [17]: 42.5 µM
GI50 [54]: 3.43 µM
TGI [54]: > 100 µM
GI50 [19]: 15.7 µM
TGI [19]: 29.5 µM
GI50 [20]: 3.87 µM
TGI [20]: 15.3 µM
GI50 [21]: 27.1 µM
TGI [21]: > 100 µM
GI50 [22]: 15.6 µM
TGI [22]: 29.2 µM
GI50 [55]: 16.1 µM
TGI [55]: 30.3 µM
GI50 [56]: 14.7 µM
TGI [56]: 28.9 µM
GI50 [57]: 23.2 µM
TGI [57]: 48.2 µM
GI50 [23]: 15.2 µM
TGI [23]: 29.2 µM
GI50 [24]: 20.7 µM
TGI [24]: 39.7 µM
GI50 [25]: 16.6 µM
TGI [25]: 30.2 µM
GI50 [27]: 22.1 µM
TGI [27]: 55.3 µM
GI50 [58]: 18.1 µM
TGI [58]: 41.2 µM
GI50 [28]: 19.4 µM
TGI [28]: 37.7 µM
GI50 [29]: 21 µM
TGI [29]: 53.1 µM
GI50 [30]: 10.7 µM
TGI [30]: 22.6 µM
GI50 [31]: 15.6 µM
TGI [31]: 29 µM
GI50 [32]: 19.8 µM
TGI [32]: 47 µM
GI50 [33]: 14.5 µM
TGI [33]: 27.6 µM
GI50 [35]: 21.1 µM
TGI [35]: 42.6 µM
GI50 [36]: 47.5 µM
TGI [36]: > 100 µM
GI50 [37]: 14 µM
TGI [37]: 29 µM
GI50 [38]: 8.86 µM
TGI [38]: 31.9 µM
GI50 [39]: 1.96 µM
TGI [39]: 4.18 µM
GI50 [40]: 4.28 µM
TGI [40]: 16 µM
GI50 [41]: 18.8 µM
TGI [41]: 41.3 µM
GI50 [43]: 13.7 µM
TGI [43]: 26.7 µM
GI50 [44]: 7.58 µM
TGI [44]: 21.8 µM
GI50 [45]: 24.7 µM
TGI [45]: 61.4 µM
GI50 [46]: 17.3 µM
TGI [46]: 31 µM
GI50 [47]: 20.6 µM
TGI [47]: 41.8 µM
GI50 [49]: 17 µM
TGI [49]: 33.6 µM
GI50 [50]: 17 µM
TGI [50]: 32.3 µM
GI50 [51]: 4.66 µM
TGI [51]: 19.3 µM
GI50 [52]: 17.3 µM
TGI [52]: 47.3 µM

Reference: PubChem BioAssay (NCI)
